Patent US10745355B2, “Anti-cancer compounds” (THE UNIVERSITY OF SYDNEY, priority 2015, dated 2020)

Experiments:
[1] = test system: U87vIII; test: Alamar blue cell viability assay, U87vIII cells; assay type: cell-based; settings: 72 hours of treatment; mean±SEM, three independent experiments
Experimental: (§1) U87 and U251 cell lines were obtained from the European Collection of Cell Cultures (ECACC) through CellBank Australia. U87-EGFRvIII cell line was obtained from their lab of origin (Nishikawa et al., 1994, Proc Natl Acad Sci USA 91: 7727-7731) and tested for EGFR amplification and mutation by immunoblotting and flow cytometry. Cells were cultured in DMEM medium (Invitrogen by Life Technologies, Carlsbad, Calif., USA) supplemented with 10% FBS (Sigma-Aldrich) at 37° C. and 5% CO2. Primary gliomaspheres (RN1, classical; WK1, mesenchymal) were derived from glioblastoma specimens (Day et al., 2013, Cancers 5: 357-371; Day et al., 2013, Cancer Cell 23: 238-248), maintained in StemPro NSC serum-free media supplemented with EGF and FGF (all Life Technologies), and grown on matrigel-coated flasks (Pollard et al., 2009, Cell Stem Cell 4: 568-580).
Cell viability was determined using Alamar blue assay after 72 hours of treatment (Table 2). EC50 values were calculated using non-linear regression on Graph Pad Prism version 5. c Log P values calculated using ChemBioDraw Software. Results are mean±SEM from three independent experiments performed in triplicates.

[2] = biological target: IGF1R (Homo sapiens, UniProt P08069); test: Kinase profiling (ProQinase 33PanQinase Activity Assay), IGF1R; assay type: biochemical; settings: read-out: residual activity, IGF1R
Experimental: The kinase profiling of compound 1-08 at 10 and 50 μM was performed by ProQinase GmbH (Freiburg, Germany). A radiometric protein kinase assay (^33PanQinase® Activity Assay) and the non-radiometric ADP-Glo™ Assay (Promega, Madison, Wis., USA) were used for measuring kinase activity of 387 protein kinases and 13 lipid kinases, respectively. The results are shown in Table 3 (only the top 10 kinases are listed, and the selectivity score describes the portion of kinases inhibited more than 50% in relation to all tested kinases).

[3] = test system: RN1 gliomaspheres (classical); test: AlamarBlue cell viability assay, RN1 gliomaspheres; assay type: cell-based; settings: 72 h of drug treatment, FIG. 11A
Experimental: FIGS. 11A-11B. Efficacy of SC-38 (referred to as “CMPD1”), compound 1-08 (referred to as “cmpd 13”), compound 1-18 (referred to as “cmpd 7”), and compound 1-38 (referred to as “cmpd 10”) in primary gliomaspheres representing two glioblastoma subtypes. (11A) RN1, classical, and (11B) WK1, mesenchymal. Cellular efficacy (EC50) of test compounds was determined using AlamarBlue cell viability assay after 72 h of drug treatment. Data are mean±SEM from 3 independent experiments performed in triplicate.
as §1, with “568-580). […]” for “568-580).”

[4] = test system: U87vIII; test: Annexin-FITC/7-AAD apoptosis assay, U87vIII cells; assay type: cell-based; settings: 48 hours treatment
Experimental: FIGS. 4A-4D. […] U87 (4A-4B) and U87vIII (4C-4D) cells were treated with SC-38 for 48 hours and stained with Annexin-FITC/7-AAD. Apoptotic cells were visualized using the MUSE cell analyzer (Millipore).
FIGS. 6A-6D. […] U87 (A B) (6A-6B) and U87vIII (6C-6D) cells were treated with compound 1-08 for 48 hours and stained with Annexin-FITC/7-AAD. Apoptotic cells were visualized using the MUSE cell analyzer (Millipore). Results are means±SEM from 3 independent experiments. One-way ANOVA followed by Dunnet post-test was used to calculate statistical significance (***P<0.001).
(§2) U87 (FIGS. 4, A-B) and U87vIII (FIG. 4, C-D) cells were treated with SC-38 for 48 hours and stained with Annexin-FITC/7-AAD. Apoptotic cells were visualized using the MUSE cell analyzer (Millipore). Results are means±SEM from 3 independent experiments. One-way ANOVA followed by Dunnet post-test was used to calculate statistical significance (**P<0.01, ***P<0.001)
as §2, with “6,” for “4,”, “compound 1-08” for “SC-38”, “three” for “3”, “(***P<0.001).” for “(**P<0.01, ***P<0.001)”

[5] = test system: U87 glioblastoma cells; test: Immunofluorescence staining of β-tubulin in treated U87 cells (microtubules, multinucleated cells, mitotic spindle); assay type: cell-based
Experimental: FIGS. 10A-10D. […] (10A) Compound 1-08 inhibits tubulin polymerisation in vitro. Data are expressed as mean from at least 3 independent experiments; each data point was performed in triplicates. (10B) U87 cells treated with compound 1-08 (24 h) were stained with Alexa488-labelled anti-β-tubulin antibody (green) or DAPI (blue). Treatment profoundly disturbed the microtubule network and caused formation of multinucleated cell (white arrows). White scale bar represents 50 μm. Multinucleated cells were manually counted and at least 200 cells were counted for each sample. Data in the bar graph (10C) are expressed as mean±SEM (n=3; * P<0.05, *** P<0.001; 1-way ANOVA followed by Newman-Keuls posttest). (10D) U87 cells were treated with compound 1-08 (48 h), tubulin and DNA were stained as in (10B). Treatment with 1-08 caused defective mitotic spindle formation. Representative images from 3 independent experiments are shown. White scale bar represents 2 μm.
The effect of compound 1-08 on tubulin polymerisation and mitotic spindle formation was also investigated. The fluorescence-based tubulin polymerisation assay was conducted in the final volume of 55 μL using the Tubulin Polymerisation Assay kit (Cytoskeleton, Colo., USA) as per the manufacturer's instructions. Porcine brain tubulin was incubated with test compounds (paclitaxel, vinblastine and compound 1-08) at 37° C. and fluorescence was measured using FLUOstar Omega microplate reader (BMG Labtech, Ortenberg, Germany; excitation at 355 nm and emission at 460 nm). […] To test whether compound 1-08 alters microtubules in vivo, U87 glioblastoma cells were treated with compound 1-08 and the effect on the microtubules was determined by immunofluorescence staining of β-tubulin. […] The consequence of microtubule depolymerisation induced by compound 13 was disrupted spindle assembly (FIG. 10D). In untreated U87 cells undergoing mitosis, microtubules are assembled into bipolar spindles (control images).

Sequence of IGF1R (P08069 31-1367): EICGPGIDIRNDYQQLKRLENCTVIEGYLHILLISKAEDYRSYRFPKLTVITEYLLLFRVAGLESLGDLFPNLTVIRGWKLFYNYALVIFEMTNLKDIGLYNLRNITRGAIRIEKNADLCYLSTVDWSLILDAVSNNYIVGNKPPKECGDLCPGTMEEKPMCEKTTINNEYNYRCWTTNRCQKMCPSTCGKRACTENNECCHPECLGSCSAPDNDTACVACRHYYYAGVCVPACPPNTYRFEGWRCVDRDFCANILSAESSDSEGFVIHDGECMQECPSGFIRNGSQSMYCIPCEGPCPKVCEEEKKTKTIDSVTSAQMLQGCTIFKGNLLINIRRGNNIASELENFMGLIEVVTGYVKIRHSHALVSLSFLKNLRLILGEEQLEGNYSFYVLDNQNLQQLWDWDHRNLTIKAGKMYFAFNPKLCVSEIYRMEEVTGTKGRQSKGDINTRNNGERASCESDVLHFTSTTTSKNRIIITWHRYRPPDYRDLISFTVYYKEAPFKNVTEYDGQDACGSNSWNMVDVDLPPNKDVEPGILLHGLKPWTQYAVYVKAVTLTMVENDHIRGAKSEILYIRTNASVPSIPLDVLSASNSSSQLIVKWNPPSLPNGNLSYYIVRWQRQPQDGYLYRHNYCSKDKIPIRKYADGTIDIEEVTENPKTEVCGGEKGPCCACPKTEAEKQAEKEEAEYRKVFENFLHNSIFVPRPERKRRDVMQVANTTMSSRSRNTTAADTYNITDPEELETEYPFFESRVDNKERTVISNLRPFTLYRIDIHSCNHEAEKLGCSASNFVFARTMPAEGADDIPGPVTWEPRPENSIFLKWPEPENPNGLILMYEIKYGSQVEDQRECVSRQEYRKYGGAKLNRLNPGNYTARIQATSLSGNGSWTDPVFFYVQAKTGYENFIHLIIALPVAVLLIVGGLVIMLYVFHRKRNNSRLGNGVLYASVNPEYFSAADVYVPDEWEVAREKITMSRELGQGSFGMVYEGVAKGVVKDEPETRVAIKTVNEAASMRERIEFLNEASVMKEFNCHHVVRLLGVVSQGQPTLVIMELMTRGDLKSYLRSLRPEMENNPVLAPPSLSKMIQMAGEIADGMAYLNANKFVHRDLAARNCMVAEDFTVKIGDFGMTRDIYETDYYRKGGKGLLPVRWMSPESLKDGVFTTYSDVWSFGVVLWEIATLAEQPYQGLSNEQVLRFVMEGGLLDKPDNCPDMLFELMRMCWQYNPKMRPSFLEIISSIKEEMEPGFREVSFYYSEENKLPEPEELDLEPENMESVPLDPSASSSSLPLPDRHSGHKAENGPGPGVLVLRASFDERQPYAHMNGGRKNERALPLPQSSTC

## O=C(CCCc1ccc(-c2cnc3ccccc3c2)cc1)Nc1ccc(O)cc1 [Compound 1-08, N-(4-hydroxyphenyl)-4-(4-(quinolin-3-yl)phenyl)butanamide]
[1]
  EC50: 1.3 ± 0.4 µM
[2]; 10 μM compound
  remaining activity at 10 µM: 73%
[2]; 50 μM compound
  remaining activity at 50 µM: 15%
[3]
  EC50: 0.54 µM
[4]
  apoptosis, U87vIII: induced apoptosis
[5]; 1 and 5 μM, FIG. 10B
  effect on microtubules: disassembly of microtubules
[5]; 1 and 5 μM, FIGS. 10B and 10C
  number of multinucleated cells: dose-dependent increase in the number of multinucleated cells
[5]; 48 h, FIG. 10D
  mitotic spindle formation: defective spindle formation and chromosome misalignment
